# According to patent US8802597B2, “Herbicidal pyrimidines” (E I du Pont de Nemours and Company, priority 2003, dated 2014):
# Tests used:
# Type in all cases: in vivo
# [1] = tested on: Surinam grass (Brachiaria decumbens); assay: Test B pre/postemergence
# Summary of the method: (§1)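 Compounds in non-phytotoxic solvent with surfactant applied preemergence to planted seeds or postemergence to plants 2 to 18 cm tall (1- to 4-leaf stage). Greenhouse 13 to 15 days, then visual rating against controls on a 0 to 100 scale (100 = complete control).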
# [2] = tested on: barnyardgrass (Echinochloa crus-galli); assay: Test B pre/postemergence
# Summary of the method: as §1
# [3] = tested on: cocklebur (Xanthium strumarium); assay: Test B pre/postemergence
# Summary of the method: as §1
# [4] = tested on: corn (Zea mays); assay: Test B pre/postemergence
# Summary of the method: as §1
# [5] = tested on: crabgrass (Digitaria sanguinalis); assay: Test B pre/postemergence
# Summary of the method: as §1
# [6] = tested on: giant foxtail (Setaria faberii); assay: Test B pre/postemergence
# Summary of the method: as §1
# [7] = tested on: lambsquarters (Chenopodium album); assay: Test B pre/postemergence
# Summary of the method: as §1
# [8] = tested on: morningglory (Ipomoea coccinea); assay: Test B pre/postemergence
# Summary of the method: as §1
# [9] = tested on: pigweed (Amaranthus retroflexus); assay: Test B pre/postemergence
# Summary of the method: as §1
# [10] = tested on: velvetleaf (Abutilon theophrasti); assay: Test B pre/postemergence
# Summary of the method: as §1
# [11] = tested on: wheat (Triticum aestivum); assay: Test B pre/postemergence
# Summary of the method: as §1
# [12] = tested on: blackgrass (Alopecurus myosuroides); assay: Test B postemergence; conditions: for Blackgrass plant response rating: scale 0 to 100 (0 no effect, 100 complete control)
# Summary of the method: as §1
# [13] = tested on: wild oat (Avena fatua); assay: Test B postemergence; conditions: for Oat, Wild plant response rating: scale 0 to 100 (0 no effect, 100 complete control)
# Summary of the method: as §1
# [14] = tested on: barnyardgrass (Echinochloa crus-galli); assay: Test B flooded paddy test; conditions: Flood
# Summary of the method: (§2)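 Visual injury scoring (0 = no effect, 100 = complete control) versus controls made 13 to 15 days after treatment in the greenhouse. Test species were grown in flooded paddy to the 2-leaf stage: rice, barnyardgrass, umbrella sedge, duck salad.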
# [15] = tested on: duck salad (Heteranthera limosa); assay: Test B flooded paddy test; conditions: Flood, scale 0 to 100
# Summary of the method: as §2
# [16] = tested on: rice (Oryza sativa); assay: Test B flooded paddy test; conditions: Flood, scale 0 to 100
# Summary of the method: as §2
# [17] = tested on: umbrella sedge (Cyperus difformis); assay: Test B flooded paddy test; conditions: Flood, scale 0 to 100
# Summary of the method: as §2
# [18] = Postemergence, 62 g ai/ha, scale 0 to 100 (0 no effect, 100 complete control)
# [19] = Postemergence, 125 g ai/ha, scale 0 to 100 (0 no effect, 100 complete control)
# [20] = Preemergence, 62 g ai/ha, scale 0 to 100, 0 no effect, 100 complete control
# [21] = Preemergence, 125 g ai/ha, scale 0 to 100 (0 no effect, 100 complete control)
# [22] = Postemergence, 500 g ai/ha, scale 0 to 100
# [23] = Preemergence, 500 g ai/ha, scale 0 to 100 (0 no effect, 100 complete control)
smiles,measurement,setting,value
COC(=O)c1nc(-c2ccc(I)cc2)nc(N)c1Br [Compound 128],Surinam Grass plant response rating,[1]; [18],30
same,Surinam Grass plant response rating,[1]; [19],40
same,"Plant response rating, Surinam Grass",[1]; [20],0
same,"Plant response rating, Surinam Grass",[1]; [21],0
same,Barnyardgrass plant response rating,[2]; [18],40
same,Barnyardgrass plant response rating,[2]; [19],60
same,"Plant response rating, Barnyardgrass",[2]; [20],0
same,"Plant response rating, Barnyardgrass",[2]; [21],10
same,Cocklebur plant response rating,[3]; [18],70
same,Cocklebur plant response rating,[3]; [19],90
same,"Plant response rating, Cocklebur",[3]; [20],0
same,"Plant response rating, Cocklebur",[3]; [21],10
same,Corn plant response rating,[4]; [18],10
same,Corn plant response rating,[4]; [19],70
same,"Plant response rating, Corn",[4]; [20],0
same,"Plant response rating, Corn",[4]; [21],0
same,Crabgrass plant response rating,[5]; [18],20
same,Crabgrass plant response rating,[5]; [19],40
same,"Plant response rating, Crabgrass",[5]; [20],0
same,"Plant response rating, Crabgrass",[5]; [21],0
same,"Foxtail, Giant plant response rating",[6]; [18],30
same,"Foxtail, Giant plant response rating",[6]; [19],50
same,"Plant response rating, Foxtail, Giant",[6]; [20],0
same,"Plant response rating, Foxtail, Giant",[6]; [21],0
same,Lambsquarters plant response rating,[7]; [18],90
same,Lambsquarters plant response rating,[7]; [19],90
same,"Plant response rating, Lambsquarters",[7]; [20],10
same,"Plant response rating, Lambsquarters",[7]; [21],50
same,Morningglory plant response rating,[8]; [18],40
same,Morningglory plant response rating,[8]; [19],90
same,"Plant response rating, Morningglory",[8]; [20],0
same,"Plant response rating, Morningglory",[8]; [21],0
same,Pigweed plant response rating,[9]; [18],90
same,Pigweed plant response rating,[9]; [19],90
same,"Plant response rating, Pigweed",[9]; [20],10
same,"Plant response rating, Pigweed",[9]; [21],50
same,Velvetleaf plant response rating,[10]; [18],50
same,Velvetleaf plant response rating,[10]; [19],80
same,"Plant response rating, Velvetleaf",[10]; [20],0
same,"Plant response rating, Velvetleaf",[10]; [21],40
same,Wheat plant response rating,[11]; [18],0
same,Wheat plant response rating,[11]; [19],20
same,"Plant response rating, Wheat",[11]; [20],0
same,"Plant response rating, Wheat",[11]; [21],0
same,Blackgrass plant response rating,[12]; 62 g ai/ha,40
same,Blackgrass plant response rating,[12]; 125 g ai/ha,50
same,"Oat, Wild plant response rating",[13]; 62 g ai/ha,0
same,"Oat, Wild plant response rating",[13]; 125 g ai/ha,40
same,"Plant response rating, Barnyardgrass","[14]; 125 g ai/ha, scale 0 to 100",0
same,"Plant response rating, Barnyardgrass","[14]; 500 g ai/ha, scale 0 to 100",30
same,"Plant response rating, Ducksalad",[15]; 125 g ai/ha,90
same,"Plant response rating, Ducksalad",[15]; 500 g ai/ha,100
same,"Plant response rating, Rice",[16]; 125 g ai/ha,0
same,"Plant response rating, Rice",[16]; 500 g ai/ha,0
same,"Plant response rating, Sedge, Umbrella",[17]; 125 g ai/ha,90
same,"Plant response rating, Sedge, Umbrella",[17]; 500 g ai/ha,100
CCOC(=O)Cc1nc(C2CC2)nc(N)c1Br [Compound 12],Surinam Grass plant response rating,[1]; [19],0
same,"Plant response rating, Surinam Grass",[1]; [22],0
same,"Plant response rating, Surinam Grass",[1]; [21],0
same,Barnyardgrass plant response rating,[2]; [19],0
same,"Plant response rating, Barnyardgrass",[2]; [22],40
same,"Plant response rating, Barnyardgrass",[2]; [21],50
same,Barnyardgrass plant response rating,[2]; [23],80
same,Cocklebur plant response rating,[3]; [19],40
same,"Plant response rating, Cocklebur",[3]; [22],70
same,"Plant response rating, Cocklebur",[3]; [21],80
same,Cocklebur plant response rating,[3]; [23],90
same,Corn plant response rating,[4]; [19],0
same,"Plant response rating, Corn",[4]; [22],0
same,"Plant response rating, Corn",[4]; [21],0
same,Corn plant response rating,[4]; [23],30
same,Crabgrass plant response rating,[5]; [19],10
same,"Plant response rating, Crabgrass",[5]; [22],30
same,"Plant response rating, Crabgrass",[5]; [21],20
same,Crabgrass plant response rating,[5]; [23],70
same,"Foxtail, Giant plant response rating",[6]; [19],0
same,"Plant response rating, Foxtail, Giant",[6]; [22],30
same,"Plant response rating, Foxtail, Giant",[6]; [21],20
same,"Foxtail, Giant plant response rating",[6]; [23],50
same,Lambsquarters plant response rating,[7]; [19],60
same,"Plant response rating, Lambsquarters",[7]; [22],80
same,"Plant response rating, Lambsquarters",[7]; [21],90
same,Lambsquarters plant response rating,[7]; [23],100
same,Morningglory plant response rating,[8]; [19],60
same,"Plant response rating, Morningglory",[8]; [22],80
same,"Plant response rating, Morningglory",[8]; [21],70
same,Morningglory plant response rating,[8]; [23],90
same,Pigweed plant response rating,[9]; [19],50
same,"Plant response rating, Pigweed",[9]; [22],80
same,"Plant response rating, Pigweed",[9]; [21],80
same,Pigweed plant response rating,[9]; [23],90
same,Velvetleaf plant response rating,[10]; [19],20
same,"Plant response rating, Velvetleaf",[10]; [22],60
same,"Plant response rating, Velvetleaf",[10]; [21],80
same,Velvetleaf plant response rating,[10]; [23],90
same,Wheat plant response rating,[11]; [19],0
same,"Plant response rating, Wheat",[11]; [22],0
same,"Plant response rating, Wheat",[11]; [21],30
same,Wheat plant response rating,[11]; [23],60
same,Blackgrass plant response rating,[12]; 125 g ai/ha,0
same,"Plant response rating, Blackgrass","[12]; 500 g ai/ha, scale 0 to 100",0
same,"Oat, Wild plant response rating",[13]; 125 g ai/ha,0
same,"Plant response rating, Oat, Wild","[13]; 500 g ai/ha, scale 0 to 100",0
same,"Plant response rating, Barnyardgrass","[14]; 1000 g ai/ha, scale 0 (no effect) to 100 (complete control)",0
same,"Plant response rating, Ducksalad",[15]; 1000 g ai/ha,20
same,"Plant response rating, Rice",[16]; 1000 g ai/ha,20
same,"Plant response rating, Sedge, Umbrella",[17]; 1000 g ai/ha,0
